From ChEMBL document CHEMBL2413072, “Synthesis and in vitro anticancer studies of novel C-2 arylidene congeners of lantadenes” (2013)

Key:
Format in all cases: functional
MDA-MB-435 = assay: Growth inhibition of human MDA-MB-435 cells assessed as cell growth at 10^-4 M by sulforhodamine B assay; details: read-out: Activity
Malme-3M [1] = assay: Growth inhibition of human MALME-3M cells by sulforhodamine B assay
[2] = Growth inhibition of human NCI-ADR-RES cells assessed as cell growth at 10^-4 M by sulforhodamine B assay; details: read-out: Activity
KM12 [3] = assay: Growth inhibition of human KM12 cells assessed as cell growth at 10^-6 M by sulforhodamine B assay; details: read-out: Activity
OVCAR-4 [4] = assay: Growth inhibition of human OVCAR4 cells by sulforhodamine B assay
ACHN = assay: Growth inhibition of human ACHN cells assessed as cell growth at 10^-6 M by sulforhodamine B assay; details: read-out: Activity
MOLT-4 [5] = assay: Growth inhibition of human MOLT4 cells assessed as cell growth at 10^-8 M by sulforhodamine B assay; details: read-out: Activity
KM12 [6] = assay: Growth inhibition of human KM12 cells assessed as cell growth at 10^-4 M by sulforhodamine B assay; details: read-out: Activity
Malme-3M [7] = assay: Growth inhibition of human MALME-3M cells assessed as cell growth at 10^-6 M by sulforhodamine B assay; details: read-out: Activity
NCI-H226 = assay: Growth inhibition of human NCI-H226 cells assessed as cell growth at 10^-8 M by sulforhodamine B assay; details: read-out: Activity
NCI-H322M = assay: Growth inhibition of human NCI-H322M cells assessed as cell growth at 10^-6 M by sulforhodamine B assay; details: read-out: Activity
A498 = assay: Growth inhibition of human A498 cells assessed as cell growth at 10^-6 M by sulforhodamine B assay; details: read-out: Activity
CCRF-CEM = assay: Growth inhibition of human CCRF-CEM cells assessed as cell growth at 10^-7 M by sulforhodamine B assay; details: read-out: Activity
OVCAR-4 [8] = assay: Growth inhibition of human OVCAR4 cells assessed as cell growth at 10^-8 M by sulforhodamine B assay; details: read-out: Activity
[9] = Growth inhibition of human HCC2998 cells assessed as cell growth at 10^-8 M by sulforhodamine B assay; details: HCC 2998, read-out: Activity
SK-MEL-5 = assay: Growth inhibition of human SK-MEL-5 cells by sulforhodamine B assay
SN12C = assay: Growth inhibition of human SN12C cells assessed as cell growth at 10^-8 M by sulforhodamine B assay; details: read-out: Activity
HL-60(TB) = assay: Growth inhibition of human HL-60(TB) cells assessed as cell growth at 10^-7 M by sulforhodamine B assay; details: read-out: Activity
MOLT-4 [10] = assay: Growth inhibition of human MOLT4 cells by sulforhodamine B assay
MOLT-4 [11] = assay: Growth inhibition of human MOLT4 cells assessed as cell growth at 10^-7 M by sulforhodamine B assay; details: read-out: Activity
UACC-257 [12] = assay: Growth inhibition of human UACC257 cells by sulforhodamine B assay
RXF 393 = assay: Growth inhibition of human RXF393 cells assessed as cell growth at 10^-7 M by sulforhodamine B assay; details: read-out: Activity
786-0 = assay: Growth inhibition of human 786-0 cells assessed as cell growth at 10^-4 M by sulforhodamine B assay; details: read-out: Activity
SW-620 = assay: Growth inhibition of human SW620 cells assessed as cell growth at 10^-7 M by sulforhodamine B assay; details: read-out: Activity
SNB-75 = assay: Growth inhibition of human SNB75 cells assessed as cell growth at 10^-7 M by sulforhodamine B assay; details: read-out: Activity
OVCAR-8 = assay: Growth inhibition of human OVCAR8 cells by sulforhodamine B assay
HOP-92 [13] = assay: Growth inhibition of human HOP92 cells assessed as cell growth at 10^-4 M by sulforhodamine B assay; details: read-out: Activity
MDA-MB-231 [14] = assay: Growth inhibition of human MDA-MB-231 cells by sulforhodamine B assay
HOP-92 [15] = assay: Growth inhibition of human HOP92 cells by sulforhodamine B assay
[16] = Growth inhibition of human NCI-ADR-RES cells assessed as cell growth at 10^-8 M by sulforhodamine B assay; details: read-out: Activity
M14 = assay: Growth inhibition of human M14 cells assessed as cell growth at 10^-7 M by sulforhodamine B assay; details: read-out: Activity
NCI-H460 = assay: Growth inhibition of human NCI-H460 cells assessed as cell growth at 10^-8 M by sulforhodamine B assay; details: read-out: Activity
DU-145 [17] = assay: Growth inhibition of human DU145 cells assessed as cell growth at 10^-7 M by sulforhodamine B assay; details: read-out: Activity
UACC-257 [18] = assay: Growth inhibition of human UACC257 cells assessed as cell growth at 10^-8 M by sulforhodamine B assay; details: read-out: Activity
[19] = Growth inhibition of human Hs 578T cells by sulforhodamine B assay
SK-MEL-2 = assay: Growth inhibition of human SK-MEL-2 cells by sulforhodamine B assay
MDA-MB-231 [20] = assay: Growth inhibition of human MDA-MB-231 cells assessed as cell growth at 10^-8 M by sulforhodamine B assay; details: read-out: Activity
DU-145 [21] = assay: Growth inhibition of human DU145 cells assessed as cell growth at 10^-8 M by sulforhodamine B assay; details: read-out: Activity
[22] = read-out: LC50 (the source's name)
[23] = read-out: pLC50 (the source's name) (converted)

## C/C=C(/C)C(=O)O[C@@H]1CC(C)(C)C[C@H]2C3=CC[C@@H]4[C@@]5(C)CC[C@H](O)C(C)(C)[C@@H]5CC[C@@]4(C)[C@]3(C)CC[C@@]12C(=O)O [Reduced Lantadene A]
MDA-MB-435
  growth at 100 µM: -47%
Malme-3M [1]; read-out: GI50
  GI50: 1.83 µM
Malme-3M [1]; [22]
  CC50: 7.7 µM
Malme-3M [1]; read-out: TGI
  TGI: 3.75 µM
Malme-3M [1]; read-out: pGI50 (converted)
  GI50: 1.82 µM
Malme-3M [1]; [23]
  CC50: 7.76 µM
Malme-3M [1]; read-out: pTGI (converted)
  TGI: 3.72 µM
[2]
  growth at 100 µM: -30%
KM12 [3]
  growth at 1 µM: 69%
OVCAR-4 [4]; read-out: GI50
  GI50: 1.77 µM
OVCAR-4 [4]; read-out: TGI
  TGI: 3.74 µM
OVCAR-4 [4]; read-out: pGI50 (converted)
  GI50: 1.78 µM
OVCAR-4 [4]; read-out: pTGI (converted)
  TGI: 3.72 µM
ACHN
  growth at 1 µM: 87%
MOLT-4 [5]
  growth at 0.01 µM: 103%
KM12 [6]
  growth at 100 µM: -29%
Malme-3M [7]
  growth at 1 µM: 92%
NCI-H226
  growth at 0.01 µM: 91%
NCI-H322M
  growth at 1 µM: 93%
A498
  growth at 1 µM: 78%
CCRF-CEM
  growth at 0.1 µM: 100%
OVCAR-4 [8]
  growth at 0.01 µM: 97%
[9]
  growth at 0.01 µM: 99%
SK-MEL-5; read-out: GI50
  GI50: 1.8 µM
SK-MEL-5; [22]
  CC50: 17.2 µM
SK-MEL-5; read-out: TGI
  TGI: 4.39 µM
SK-MEL-5; read-out: pGI50 (converted)
  GI50: 1.78 µM
SK-MEL-5; [23]
  CC50: 17.4 µM
SK-MEL-5; read-out: pTGI (converted)
  TGI: 4.37 µM
SN12C
  growth at 0.01 µM: 96%
HL-60(TB)
  growth at 0.1 µM: 110%
MOLT-4 [10]; read-out: GI50
  GI50: 2.05 µM
MOLT-4 [10]; [22]
  CC50: > 100 µM
MOLT-4 [10]; read-out: TGI
  TGI: 5.14 µM
MOLT-4 [10]; read-out: pGI50 (converted)
  GI50: 2.04 µM
MOLT-4 [10]; [23]
  CC50: > 100 µM
MOLT-4 [10]; read-out: pTGI (converted)
  TGI: 5.13 µM
MOLT-4 [11]
  growth at 0.1 µM: 98%
UACC-257 [12]; read-out: GI50
  GI50: 2.13 µM
UACC-257 [12]; [22]
  CC50: 19.3 µM
UACC-257 [12]; read-out: TGI
  TGI: 4.93 µM
UACC-257 [12]; read-out: pGI50 (converted)
  GI50: 2.14 µM
UACC-257 [12]; [23]
  CC50: 19.5 µM
UACC-257 [12]; read-out: pTGI (converted)
  TGI: 4.9 µM
RXF 393
  growth at 0.1 µM: 95%
786-0
  growth at 100 µM: -55%
SW-620
  growth at 0.1 µM: 95%
SNB-75
  growth at 0.1 µM: 78%
OVCAR-8; read-out: GI50
  GI50: 1.92 µM
OVCAR-8; read-out: TGI
  TGI: 3.87 µM
OVCAR-8; read-out: pGI50 (converted)
  GI50: 1.91 µM
OVCAR-8; read-out: pTGI (converted)
  TGI: 3.89 µM
HOP-92 [13]
  growth at 100 µM: -73%
MDA-MB-231 [14]; read-out: GI50
  GI50: 1.65 µM
MDA-MB-231 [14]; [22]
  CC50: 5.98 µM
MDA-MB-231 [14]; read-out: TGI
  TGI: 3.14 µM
MDA-MB-231 [14]; read-out: pGI50 (converted)
  GI50: 1.66 µM
MDA-MB-231 [14]; [23]
  CC50: 6.03 µM
MDA-MB-231 [14]; read-out: pTGI (converted)
  TGI: 3.16 µM
HOP-92 [15]; read-out: GI50
  GI50: 1.41 µM
HOP-92 [15]; [22]
  CC50: 6.21 µM
HOP-92 [15]; read-out: TGI
  TGI: 2.96 µM
HOP-92 [15]; read-out: pGI50 (converted)
  GI50: 1.41 µM
HOP-92 [15]; [23]
  CC50: 6.17 µM
HOP-92 [15]; read-out: pTGI (converted)
  TGI: 2.95 µM
[16]
  growth at 0.01 µM: 102%
M14
  growth at 0.1 µM: 92%
NCI-H460
  growth at 0.01 µM: 101%
DU-145 [17]
  growth at 0.1 µM: 115%
UACC-257 [18]
  growth at 0.01 µM: 93%
[19]; read-out: GI50
  GI50: 2.13 µM
[19]; [22]
  CC50: > 100 µM
[19]; read-out: TGI
  TGI: 5.21 µM
[19]; read-out: pGI50 (converted)
  GI50: 2.14 µM
[19]; [23]
  CC50: > 100 µM
[19]; read-out: pTGI (converted)
  TGI: 5.25 µM
SK-MEL-2; read-out: GI50
  GI50: 2.2 µM
SK-MEL-2; [22]
  CC50: 8.29 µM
SK-MEL-2; read-out: TGI
  TGI: 4.27 µM
SK-MEL-2; read-out: pGI50 (converted)
  GI50: 2.19 µM
SK-MEL-2; [23]
  CC50: 8.32 µM
SK-MEL-2; read-out: pTGI (converted)
  TGI: 4.27 µM
MDA-MB-231 [20]
  growth at 0.01 µM: 99%
DU-145 [21]
  growth at 0.01 µM: 113%
